# Data: paper PMC2948022 (Talanta, 2010)
# Legend:
# Plasma concentrations of = conditions: CRPS patient, (R,S)-Ket 40 mg/h continuous infusion, morning of Day 3; estimated using the standard curve for (2S,6S); (2R,6R)-hydroxynorketamine
# Urine concentrations of = format: in vivo, human; conditions: CRPS patient, (R,S)-Ket 40 mg/h continuous infusion, morning of Day 3
# Relative = format: in vivo, human; conditions: CRPS patient urine, Day 3, AGP-CSP
# [1] = cited from earlier work
# [2] = cited from earlier work; remark: listed apart in the source
# [3] = estimated using the standard curve for (2S,6S), (2R,6R)-hydroxynorketamine
# [4] = estimated using the standard curve for (2S,6S)-hydroxyketamine
Structure (SMILES),Plasma (Plasma concentrations of),Urine (Urine concentrations of; [3]),also measured
"NC1(c2ccccc2Cl)CC(O)CCC1=O (single isomer, unassigned) [Peak 4e]",160 ng/mL,515 ng/mL,–
"N[C@]1(c2ccccc2Cl)CC[C@@H](O)CC1=O (single isomer, unassigned) [Peak 4f]",141 ng/mL,–,"Urine (ng/ml) (Urine concentrations of; [3]): 4,099 ng/ml"
"CNC1(c2ccccc2Cl)CCCCC1=O (single isomer, unassigned; peak 1) [Peak 1, (R.S)-Ketamine]",–,–,relative enantiomeric urine concentration (R)-/(S)- (Relative): 1.0
"N[C@@]1(c2ccccc2Cl)CCC[C@@H](O)C1=O (single isomer, unassigned; peak 4a) [Peak 4a]",–,–,concentration in the CNS [1]: reaches significant concentration in the CNS; anesthetic activity [2]: no anesthetic activity
"NC1(c2ccccc2Cl)CCCC(O)C1=O (single isomer, unassigned; peak 4b) [Peak 4b]",881 ng/mL,572 ng/mL,–
"N[C@]1(c2ccccc2Cl)CC[C@H](O)CC1=O (single isomer, unassigned; peak 4c) [Peak 4c]",245 ng/mL,940 ng/mL,–
"N[C@]1(c2ccccc2Cl)C[C@@H](O)CCC1=O (single isomer, unassigned; peak 4d) [Peak 4d]",145 ng/mL,475 ng/mL,–
"CN[C@]1(c2ccccc2Cl)CC[C@H](O)CC1=O (single isomer, unassigned; peak 5c) [Peak 5c]",–,–,Urine (Urine concentrations of; [4]): 4 ng/mL
"CN[C@@]1(c2ccccc2Cl)CC[C@H](O)CC1=O (single isomer, unassigned; peak 5d) [Peak 5d]",–,–,Urine (Urine concentrations of; [4]): 5 ng/mL
